# Measured values from patent US9844534B2, “PKC delta inhibitors for use as therapeutics” (Faller & Williams Technology, LLC, priority 2012, dated 2017).
# Experiments:
# [1] = target: T1, PKC alpha (Homo sapiens, UniProt P17252); experiment: PKC kinase activity assay (Omnia Kinase Assay); format: biochemical
# T1 construct: purchased Invitrogen
# Experimental: PKC Kinase Activity Assays: Assays were carried out using recombinant PKC alpha or PKC gamma, (Invitrogen) and the Omnia® Kinase Assays (Invitrogen) with a “PKC kinase-specific” peptide substrate. Incorporation of a chelation-enhanced fluorophore (CHEF) results in an increase in fluorescence ex360/em485) upon phosphorylation. The kit was used according to the manufacturer's instructions.
# [2] = tested on: BON1 cells; experiment: Cell proliferation assay (MTT/MTS); format: cell-based, human
# Text: (§1) Cell Lines: BON1, a human foregut (pancreatic) carcinoid tumor cell line (Parekh et al. 1994) was obtained from Kjell Oberg (Uppsala University, Sweden) through Dr. Evan Vosburgh. H727 cells, derived from a human bronchopulmonary carcinoid tumor (Schuller et al. 1987), were purchased from ATCC. The CNDT 2.5 cell line, initially described as a human midgut carcinoid tumor cell line (Van Buren et al. 2007), was provided by Dr. Lee Ellis, (MD Anderson Cancer Center). The provenance of this cell line is currently under review by the originator. BONI, H727, MCF10 and CNDT 2.5 cells were propagated in 10% FBS (Invitrogen); Dulbecco's Modification of Earle's Media/Hams F-12 50:50 media (Cellgro); 2 mM L-Glutamine (Invitrogen); 200 U Penicillin/ml; 200 μg Streptomycin/ml (Invitrogen); 10 ng/ml Nerve Growth Factor (Invitrogen); 1×MEM Non-Essential Amino Acids (Cellgro); 1×MEM Vitamin Solution (Cellgro); 1 mM Sodium Pyruvate; 0.015 M HEPES buffer (pH7.3) (American Bioanalytical).
# (§2) Cell Proliferation Assays—Cell proliferation was assessed using an MTT [3-(4,5-dimethylthiazol-2-yl)-2,5-diphenyltetrazolium bromide] assay (Roche, Mannheim, Germany). The number of viable cells growing in a single well on a 96-well microtiter plate was estimated by adding 10 μl of MTT solution (5 mg/ml in phosphate-buffered saline [PBS]). After 4 h of incubation at 37° C., the stain is diluted with 100 μl of dimethyl sulfoxide. The optical densities are quantified at a test wavelength of 570 nm and a reference wavelength of 690 nm on a multiwell spectrophotometer. In some assays, MTS was used as substrate (Promega, Madison, Wis.), and the absorbance of the product was monitored at 490 nm.
# [3] = tested on: CNDT 2.5 cells; experiment: Cell proliferation assay (MTT/MTS); format: cell-based, human
# Text: as §1, §2
# [4] = tested on: H727 cells; experiment: Cell proliferation assay (MTT/MTS); format: cell-based, human
# Text: as §1, §2
# [5] = tested on: H727 cells; experiment: Cytotoxicity assay (LDH release); format: cell-based, human
# Text: Briefly, total culture medium was cleared by centrifugation. For assay of released LDH, supernatants were collected.
# [6] = tested on: H727 cells; experiment: Clonogenic assay; format: cell-based, human; settings: H727, exposure 6-72 hr, replated without inhibitor
# Experimental: Clonogenic Assays: 100,000 cells were seeded on 100 mm dishes 5 with 10 ml media per dish (Li et al. 2004). […] Cells were trypsinized; counted via Trypan Blue Exclusion Method in order to determine the number of live cells in the sample, and 500 live cells were seeded in triplicate onto 6 well plates. Cells were monitored for appropriate colony size and re-fed every three to four days. At Day 17, cells were stained with ethidium bromide (Guda et al. 2007) and counted using UVP LabWorks software.
# LDH release assesses cytotoxic damage sufficient to compromise membrane integrity over a relatively short time-span. An alternative method, which assesses lethal, but not necessarily immediate, cumulative damage to the tumor cell is a clonogenic assay. In this assay, tumor cells which remain viable after exposure to the compound are tested for their ability to proliferate sufficiently over time to form colonies of tumor cells. H727 treated with vehicle or a PKC delta inhibitor at sub-optimal concentrations varying durations. After replating of viable cells in media without inhibitor, colony numbers were quantitated over time.
# [7] = target: PKC delta (Homo sapiens, UniProt Q05655); settings: cultured cells, given as 'in vivo'; read-out: IC50, inhibition of PKC delta in cultured cells; cited from earlier work
# Chain of PKC delta (Q05655 whole entry): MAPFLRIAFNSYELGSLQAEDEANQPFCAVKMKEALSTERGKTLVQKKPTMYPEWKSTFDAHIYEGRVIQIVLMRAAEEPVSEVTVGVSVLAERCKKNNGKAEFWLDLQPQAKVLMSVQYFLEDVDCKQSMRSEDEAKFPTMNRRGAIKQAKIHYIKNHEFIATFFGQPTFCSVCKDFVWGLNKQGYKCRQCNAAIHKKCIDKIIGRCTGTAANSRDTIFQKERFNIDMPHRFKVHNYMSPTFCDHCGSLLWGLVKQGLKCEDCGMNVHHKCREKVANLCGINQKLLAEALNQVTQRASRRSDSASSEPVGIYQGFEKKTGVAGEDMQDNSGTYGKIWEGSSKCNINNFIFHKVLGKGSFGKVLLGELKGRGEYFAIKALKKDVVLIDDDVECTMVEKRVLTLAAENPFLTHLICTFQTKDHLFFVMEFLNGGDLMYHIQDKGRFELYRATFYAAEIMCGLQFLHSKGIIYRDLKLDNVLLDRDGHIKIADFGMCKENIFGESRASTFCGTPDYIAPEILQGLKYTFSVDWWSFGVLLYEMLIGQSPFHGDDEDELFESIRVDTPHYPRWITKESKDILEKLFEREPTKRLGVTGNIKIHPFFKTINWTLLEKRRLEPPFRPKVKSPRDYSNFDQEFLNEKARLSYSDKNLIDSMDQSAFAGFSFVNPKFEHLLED
# [8] = tested on: PKC delta protein; settings: longer periods of exposure; no effect on levels of other PKC isozymes; cited from earlier work
# [9] = tested on: nontumorigenic murine or human cells; settings: same culture conditions; cited from earlier work
Molecule,IC50 [1],"reduction in relative cell numbers ([2]; BON1, by 72 hrs, highest concentrations tested)","growth-inhibitory effect on long-term exposure ([2]; BON1, sub-optimal concentration (10 μM), re-fed with inhibitor after 72 hr)","duration of exposure needed to inhibit proliferation (washout) ([2]; BON1, sub-optimal concentration, inhibitor washed out, growth assessed over next 72 hrs)","IC50 ([2]; Homo sapiens, BON1, by 48 hrs, read-out: IC50, decrease in cell number)","reduction in relative cell numbers ([3]; CNDT 2.5, by 72 hrs, highest concentrations tested)","growth-inhibitory effect on long-term exposure ([3]; CNDT, sub-optimal concentration (10 μM), re-fed with inhibitor after 72 hr)","IC50 ([3]; Homo sapiens, CNDT 2.5, by 48 hrs, read-out: IC50, decrease in cell number)","reduction in relative cell numbers ([4]; H727, by 72 hrs, highest concentrations tested)","IC50 ([4]; Homo sapiens, NCI-H727, H727, by 48 hrs, read-out: IC50, decrease in cell number)","cytotoxicity as assessed by LDH release ([5]; H727, 24, 48 and 72 hours)","LDH release versus vehicle control, significance ([5]; H727, p<0.003)",effect on clonogenic capacity versus DMSO control [6],IC50 [7],down-regulation of PKC delta protein in cells [8],effect on growth of nontumorigenic cells [9],"effect on proliferation ([2]; BON1, siRNA knockdown, MTS)","effect on proliferation ([3]; CNDT, siRNA knockdown, MTS)"
CC(=O)c1c(O)c(C)c(O)c(Cc2c(O)c3c(c(C(=O)/C=C/c4ccccc4)c2O)OC(C)(C)C=C3)c1O [rottlerin],> 50 µM,significant reduction in relative cell numbers,growth-inhibitory effects persisted to 168 hr,statistically significant by 24 hr of exposure,~5 µM,significant reduction in relative cell numbers,growth-inhibitory effects persisted to 168 hr,~5 µM,significant reduction in relative cell numbers,~5 µM,cytotoxicity increasing as a function of time and concentration,reached significance by 24 hr of exposure,reached significance (p=0.0051) at 6 hr of exposure,5 µM,significantly down-regulates PKC delta protein,no significant effect on the growth,–,–
"PKC delta-specific siRNA: siRNA duplexes targeting PKC delta (SEQ ID NO 1 and 2), obtained from Qiagen (chain 1 GAUGAAGGAGGCGCUCAGTT; chain 2 GGCUGAGUUCUGGCUGGACTT; chemistry not given here)",–,–,–,–,–,–,–,–,–,–,–,–,–,–,–,–,profound inhibition of proliferation,profound inhibition of proliferation
